Results taken from patent US11787772B2, “Carboxylic diarythiazepineamines as mixed mu- and delta-opioid receptor agonists” (THE TRUSTEES OF COLUMBIA UNIVERSITY IN THE CITY OF NEW YORK, priority 2017, dated 2023).

Assays:
[1] = molecular target: T1, human mu opioid receptor (MOR) (Homo sapiens, UniProt P35372); test: BRET assay measuring G protein activation, agonist activity at human MOR; type: cell-based
T1 construct: expressed in transfected cells; host or cells: HEK-293T
Method: The diarylthiazepinamine carboxylic acids (9) were tested for agonist activity at the human mu opioid receptor (MOR) and delta opioid receptor (DOR) using bioluminescence resonance energy transfer (BRET) assays measuring G protein activation as previously described (Table 1) (Rives, M.-L. et al. 2012; Negri, A. et al. 2013).
Human MOR cDNA was transfected alongside GααB with RLuc8 inserted at position 91 (GααB—RLuc8), Gβ1 (β1), and Gγ2 fused to the full-length mVenus at its N terminus (mVenus-γ2) into HEK-293T cells (5×10^6 cells/plate) in 10-cm dishes using PEI (Polysciences Inc.; Warrington, PA) in a 1:1 ratio diluted in Opti-MEM (Life Technologies Corp.; Grand Island, NY) to assay for G protein activation as described previously (Rives, M.-L. et al. 2012; Negri, A. et al. 2013). Cells were maintained in Dulbecco's Modified Eagle Medium (high glucose #11965; Life Technologies) supplemented with 10% FBS (Premium Select, Atlanta Biologicals; Atlanta, GA) and 100 U/mL penicillin and 100 μg/mL streptomycin (#15140, Life Technologies). After 24 hours the media was changed, and the experiment was performed 24 hours later (48 hours after transfection).
Transfected cells were dissociated and re-suspended in phosphate-buffered saline (PBS). Approximately 200,000 cells/well were added to a black-framed, white well 96-well plate (#60050; Perkin Elmer; Waltham, MA). The microplate was centrifuged and the cells were re-suspended in PBS. Then 5 μM of the luciferase substrate coelenterazine H was added to each well for 5 minutes. Following coelenterazine H addition, ligands were added and the BRET signal was measured at 5 minutes on a PHERAstar FS plate reader. Quantification of the BRET signal required calculating the ratio of the light emitted by the energy acceptor, mVenus (510-540 nm), over the light emitted by the energy donor, RLuc8 (485 nm). […] Dose response curves were fit using a three-parameter logistics equation in GraphPad Prism 6.
The additional diarylthiazepinamine carboxylic acids (9i, 9j, 9k, and 91) were tested for agonist activity at the human mu opioid receptor (MOR) using bioluminescence resonance energy transfer (BRET) assays measuring G protein activation (Table 2) as previously described (Rives, M.-L. et al. 2012; Negri, A. et al. 2013; Example 2 of the present application).

[2] = Solubility determination (Method B), neutral water; type: physicochemical
Method: A quantity of the appropriate compound sufficient to saturate the resulting solution was added to distilled water (0.50 mL) and the mixture agitated on an orbital shaker for 2 h at room temperature (20° C.). The mixture was then centrifuged for 5 min. at 21,000×g and the supernatant was carefully removed by syringe and passed through a […] syringe filter. An aliquot (300 μL) of the filtered supernatant was concentrated in vacuo and the mass of the residual solids determined in order to calculate the solubility.

physchem = settings: 25 °C, thermodynamic from solid
Method: Test compounds (4 mg) were added to 200 μL of one of the tested aqueous solutions (hereinafter—buffer): 100 mM aqueous HCl (pH 1) or 100 mM Na-phosphate buffer (pH 7). The obtained suspensions/solutions with the theoretical concentration of 20 mg/mL were further allowed to equilibrate at 25° C. on a thermostatic orbital shaker for 24 hours and then centrifuged at 6000 rpm for 4 minutes and filtered through HTS filter plates using a vacuum manifold. In parallel, compound dilutions in 50% acetonitrile/HCl and 30% acetonitrile/Na-phosphate buffer mixes were prepared to theoretical concentrations of 0 mg/mL (blank), 0.1 mg/mL, 0.2 mg/mL, and 0.4 mg/mL in duplicates to generate calibration curves falling within the optimum UV absorption range. The filtrates of test compounds were diluted 100-fold with acetonitrile-buffer mixtures before measuring. The filtered supernatant test samples were transferred to 96-well plates and measured for absorbance in the 200-550 nm range with 5 nm step increment. The concentrations of compounds in supernatants were calculated using the measured absorbance and the previously determined calibration curve. Proper absorbance wavelengths for calculations were selected for each compound manually based on absorbance maxima (absolute absorbance unit values for the minimum and maximum concentration points within 0-2.5 OD range).

male C57BL/6 mice = test: Analgesic activity in hot plate assay; type: in vivo, mouse
Method: Male C57BL/6 mice were timed for latency to jump on a hot-plate apparatus set to 55° C., using a 30 s cutoff to prevent tissue damage. Following a baseline test, animals were injected subcutaneously (s.c.) with escalating doses of drug and tested at […] (time of maximal effect). Dose-response curves were fit via nonlinear regression using GraphPad Prism (La Jolla, CA).

T1 sequence (P35372 whole entry): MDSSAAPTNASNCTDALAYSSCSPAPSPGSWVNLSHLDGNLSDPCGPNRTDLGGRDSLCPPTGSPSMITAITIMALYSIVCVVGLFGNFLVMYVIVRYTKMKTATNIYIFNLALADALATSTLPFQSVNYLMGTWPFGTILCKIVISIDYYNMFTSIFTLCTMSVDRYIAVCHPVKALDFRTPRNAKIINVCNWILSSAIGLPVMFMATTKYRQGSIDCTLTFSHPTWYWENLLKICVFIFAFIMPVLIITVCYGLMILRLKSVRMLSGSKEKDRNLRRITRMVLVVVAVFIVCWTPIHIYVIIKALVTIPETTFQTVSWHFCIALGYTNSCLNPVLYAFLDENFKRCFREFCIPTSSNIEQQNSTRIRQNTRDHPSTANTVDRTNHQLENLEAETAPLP

In the case of `CN1c2ccccc2C(NCCCCCCC(=O)O)c2cc(F)c(I)cc2S1(=O)=O.Cl` (centres unmarked) [Compound 9k, 7-((2-fluoro-3-iodo-6-methyl-5,5-dioxido-6,11-dihydrodibenzo [c,f][1,2]thiazepin-11-yl)amino) heptanoic acid hydrochloride salt], the EC50 [1] is reported as 4.6 nM, the “MOR potency relative to analogs lacking substitution at position 2” value ([1]; dihalo-substituted core) is reported as “equipotent or more potent” and the solubility at 2 h ([2]; distilled water, thermodynamic from solid, neutral water, 20° C., Method B (2 h orbital shaker), read-out: Aqueous Solubility (mg/mL @ 20° C.)) is reported as 5.7 mg/mL. For the same molecule, the “Solubility relative to monohalo counterpart iodotianeptine” value ([2]; neutral unbuffered water) was 2-3 fold, the solubility (physchem; pH 1, simulated gastric fluid) was 2700 µg/mL and the solubility (physchem; pH 7, aqueous buffer) was 390 µg/mL. For the same molecule, the ED50 (male C57BL/6 mice; Mus musculus, sc, hot plate 55° C., male C57BL/6 mice, tested at 15 post-injection) was 1.7 mg/kg and the “Analgesic activity in the mouse hot plate assay” value (male C57BL/6 mice; much higher potency than tianeptine) was “potent analgesics”.
